Experimental data published in patent US11897862B2 (Gilead Sciences, Inc., priority 2022, dated 2024).

What was measured:
IKZF1 = molecular target: T1, IKZF1 (Homo sapiens, UniProt Q13422+Q96SW2); experiment: HEK293 HiBiT in vitro degradation of IKZF1; format: cell-based; details: for Dmax: HEK293, HEK293 HiBiT; for Dmax / IKZF1 Dmax: maximum degradation at the highest concentration tested; for DC50 / IKZF1 Dmax: HEK293 HiBiT; for DC50: 18-24 hr incubation, normalized to DMSO control, read-out: IKZF1 EC50
T1 construct: expressed in transfected cells
T1 sequence (Q13422 whole entry): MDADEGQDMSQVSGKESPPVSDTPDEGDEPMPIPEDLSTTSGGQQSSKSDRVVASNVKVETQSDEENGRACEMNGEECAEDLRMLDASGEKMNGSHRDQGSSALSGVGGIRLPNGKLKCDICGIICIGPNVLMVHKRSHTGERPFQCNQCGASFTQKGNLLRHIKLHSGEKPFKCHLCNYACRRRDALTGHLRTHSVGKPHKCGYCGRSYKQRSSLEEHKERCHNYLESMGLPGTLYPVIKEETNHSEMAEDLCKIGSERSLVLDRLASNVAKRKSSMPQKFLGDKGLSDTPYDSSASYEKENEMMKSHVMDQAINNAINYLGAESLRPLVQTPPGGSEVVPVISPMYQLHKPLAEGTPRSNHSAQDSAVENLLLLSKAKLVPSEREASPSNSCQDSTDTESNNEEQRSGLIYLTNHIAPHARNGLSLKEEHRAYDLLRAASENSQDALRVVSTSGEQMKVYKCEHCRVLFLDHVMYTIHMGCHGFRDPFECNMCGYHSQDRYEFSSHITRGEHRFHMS
T1 sequence (Q96SW2 whole entry): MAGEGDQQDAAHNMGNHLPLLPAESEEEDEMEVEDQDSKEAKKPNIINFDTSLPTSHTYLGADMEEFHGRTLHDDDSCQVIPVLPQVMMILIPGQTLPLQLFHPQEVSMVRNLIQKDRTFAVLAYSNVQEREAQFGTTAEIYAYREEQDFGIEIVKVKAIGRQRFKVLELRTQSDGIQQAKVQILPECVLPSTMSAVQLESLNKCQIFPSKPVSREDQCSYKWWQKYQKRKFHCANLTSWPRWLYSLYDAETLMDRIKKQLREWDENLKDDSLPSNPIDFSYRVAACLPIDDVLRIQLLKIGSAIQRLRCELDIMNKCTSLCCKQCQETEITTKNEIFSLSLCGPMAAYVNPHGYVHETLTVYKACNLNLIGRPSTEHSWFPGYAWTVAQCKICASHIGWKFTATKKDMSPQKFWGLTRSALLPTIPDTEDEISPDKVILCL
T1 sequence (Q16531 whole entry partner): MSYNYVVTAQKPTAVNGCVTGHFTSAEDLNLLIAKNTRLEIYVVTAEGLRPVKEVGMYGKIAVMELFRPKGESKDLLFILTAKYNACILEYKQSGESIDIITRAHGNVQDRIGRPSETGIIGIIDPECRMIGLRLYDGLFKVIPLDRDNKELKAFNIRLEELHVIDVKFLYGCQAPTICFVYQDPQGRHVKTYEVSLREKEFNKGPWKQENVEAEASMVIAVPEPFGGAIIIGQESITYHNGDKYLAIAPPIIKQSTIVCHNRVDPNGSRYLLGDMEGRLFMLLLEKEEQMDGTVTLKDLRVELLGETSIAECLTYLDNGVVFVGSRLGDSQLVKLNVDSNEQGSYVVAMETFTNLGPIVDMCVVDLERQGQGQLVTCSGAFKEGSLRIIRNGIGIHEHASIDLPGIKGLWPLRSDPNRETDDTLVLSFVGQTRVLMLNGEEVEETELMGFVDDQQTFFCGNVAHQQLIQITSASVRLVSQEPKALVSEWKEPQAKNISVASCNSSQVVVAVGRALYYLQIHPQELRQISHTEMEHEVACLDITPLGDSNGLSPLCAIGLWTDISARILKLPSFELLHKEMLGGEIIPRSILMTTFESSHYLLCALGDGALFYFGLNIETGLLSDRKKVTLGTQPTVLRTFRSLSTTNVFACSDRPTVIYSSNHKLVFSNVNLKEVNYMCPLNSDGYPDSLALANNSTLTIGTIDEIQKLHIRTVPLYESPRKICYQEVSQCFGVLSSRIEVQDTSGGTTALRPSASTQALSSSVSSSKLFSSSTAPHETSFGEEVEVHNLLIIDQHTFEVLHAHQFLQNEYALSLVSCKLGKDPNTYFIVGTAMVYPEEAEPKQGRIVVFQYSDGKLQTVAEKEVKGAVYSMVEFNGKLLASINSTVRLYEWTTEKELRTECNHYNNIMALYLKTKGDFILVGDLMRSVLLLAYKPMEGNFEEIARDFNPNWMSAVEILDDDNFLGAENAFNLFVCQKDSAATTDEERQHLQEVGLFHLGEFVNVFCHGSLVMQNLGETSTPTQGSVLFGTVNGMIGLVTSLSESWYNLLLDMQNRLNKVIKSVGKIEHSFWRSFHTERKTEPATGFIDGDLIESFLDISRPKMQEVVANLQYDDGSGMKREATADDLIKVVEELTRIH
In short: (§1)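 Degradation was scored as loss of HiBiT signal from C-terminally tagged IKZF1, IKZF2 or SALL4 in doxycycline-induced Flp-In T-REx HEK293 cells after overnight (18-24 h) compound treatment. EC50 and Dmax were derived from the luminescence.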

IKZF2 = IKZF2 (Homo sapiens, UniProt Q96SW2+Q9UKS7); experiment: HEK293 HiBiT in vitro degradation of IKZF2; format: cell-based; set-up: expressed in transfected cells; details: for Dmax: HEK293, HEK293 HiBiT; for Dmax / IKZF2 Dmax: maximum degradation at the highest concentration tested; for DC50 / IKZF2 Dmax: HEK293 HiBiT; for DC50: 18-24 hr incubation, normalized to DMSO control, read-out: IKZF2 EC50
Chain of IKZF2 (Q9UKS7 1-500 isoform Q9UKS7-2): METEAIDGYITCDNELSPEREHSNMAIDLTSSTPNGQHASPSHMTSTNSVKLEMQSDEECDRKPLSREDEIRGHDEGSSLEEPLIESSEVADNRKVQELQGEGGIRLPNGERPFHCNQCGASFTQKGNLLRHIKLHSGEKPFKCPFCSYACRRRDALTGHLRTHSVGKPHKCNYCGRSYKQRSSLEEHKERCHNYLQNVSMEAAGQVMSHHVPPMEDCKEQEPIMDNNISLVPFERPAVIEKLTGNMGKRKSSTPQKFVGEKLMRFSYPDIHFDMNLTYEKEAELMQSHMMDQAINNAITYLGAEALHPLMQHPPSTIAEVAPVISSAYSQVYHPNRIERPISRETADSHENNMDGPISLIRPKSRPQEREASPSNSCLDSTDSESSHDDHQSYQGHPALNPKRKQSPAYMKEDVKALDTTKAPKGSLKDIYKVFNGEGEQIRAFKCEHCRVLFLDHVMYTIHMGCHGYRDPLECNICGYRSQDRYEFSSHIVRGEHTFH
Chain of IKZF2 (Q96SW2 whole entry): as the sequence (Q96SW2 whole entry) above
Chain of IKZF2 (Q16531 whole entry partner): as the sequence (Q16531 whole entry partner) above
In short: as §1

SMILES	Dmax (IKZF1) [%]	DC50 (IKZF1) [nM]	Dmax (IKZF2) [%]	DC50 (IKZF2) [nM]	IKZF1 Dmax (IKZF1) [%]	IKZF2 Dmax (IKZF2) [%]
O=C1CCC(N2Cc3cc(C[C@H]4CCCC[C@@H]4NC4CCCC[C@H]4F)ccc3C2=O)C(=O)N1 (some centres unmarked) [Example 107]	36	81	96	3	–	–
O=C1CCC(N2Cc3cc(C[C@H]4C=C(F)CC[C@@H]4NC4CCCCC4)ccc3C2=O)C(=O)N1 (stereo partly drawn) [Example 314, 3-(5-(((1S,6S)-6-(cyclohexylamino)-3-fluorocyclohex-2-en-1-yl)methyl)-1-oxoisoindolin-2-yl)piperidine-2,6-dione]	30	653	70	90	–	–
O=C1CCC(N2Cc3cc(C[C@H]4CCOC[C@@H]4NC4CCC(F)(F)CC4)ccc3C2=O)C(=O)N1 (some centres unmarked) [Example 126]	–	> 1000	80	114	–	–
CC(N[C@H]1CCCC[C@@H]1Cc1ccc2c(c1)CN(C1CCC(=O)NC1=O)C2=O)C1(F)CC1 (single isomer, unassigned) [Example 224]	–	> 1000	96	2	–	–
O=C1CCC(N2Cc3cc(C[C@H]4CCCC[C@@H]4NCC45CC(c6ccccc6)(C4)C5(F)F)ccc3C2=O)C(=O)N1 (some centres unmarked) [Example 174]	–	> 1000	86	67	–	–
O=C1CCC(N2Cc3cc(C[C@H]4CCCC[C@@H]4NC4CC5(COC5)C4)ccc3C2=O)C(=O)N1 (stereo partly drawn) [Example 80, 3-(5-(((1R,2S)-2-((2-oxaspiro[3.3]heptan-6-yl)amino)cyclohexyl)methyl)-1-oxoisoindolin-2-yl)piperidine-2,6-dione]	32	299	95	33	–	–
O=C1CCC(N2Cc3cc(C[C@H]4CCC[C@H](O)[C@@H]4NC4CCCCC4)ccc3C2=O)C(=O)N1 (relative stereo) [Example 310, 3-(5-(((1R,2R,3S)-rel-2-(cyclohexylamino)-3-hydroxycyclohexyl)methyl)-1-oxoisoindolin-2-yl)piperidine-2,6-dione]	–	> 500	90	27	–	–
O=C1CCC(N2Cc3cc(C[C@H]4CCCC[C@@H]4NCC45CCC(CC4)CC5)ccc3C2=O)C(=O)N1 (stereo partly drawn) [Example 83, 3-(5-(((1R,2S)-2-((bicyclo[2.2.2]octan-1-ylmethyl)amino)cyclohexyl)methyl)-1-oxoisoindolin-2-yl)piperidine-2,6-dione]	–	> 1000	92	37	–	–
CC(N[C@H]1CCCC[C@@H]1Cc1ccc2c(c1)CN(C1CCC(=O)NC1=O)C2=O)C1CCOCC1 (some centres unmarked) [Example 200]	–	> 1000	96	4	–	–
O=C1CCC(N2Cc3cc(C[C@H]4CCCC[C@@H]4NC4C[C@H]5COC[C@H]5C4)ccc3C2=O)C(=O)N1 (some centres unmarked) [Example 198]	–	> 1000	97	16	–	–
O=C1CCC(N2Cc3cc(C[C@H]4C[C@@H](F)CC[C@@H]4NC4CCCCC4)ccc3C2=O)C(=O)N1 (some centres unmarked) [Example 342]	–	> 1000	86	18	–	–
CC(C)C(C)N[C@H]1CCCO[C@@H]1Cc1ccc2c(c1F)CN(C1CCC(=O)NC1=O)C2=O (some centres unmarked) [Example 306]	–	> 1000	95	10	–	–
COc1ccc(CN[C@H]2CCCC[C@@H]2Cc2ccc3c(c2)CN(C2CCC(=O)NC2=O)C3=O)cc1 (stereo partly drawn) [Example 14, 3-(5-(((1R,2S)-2-((4-methoxybenzyl)amino)cyclohexyl)methyl)-1-oxoisoindolin-2-yl)piperidine-2,6-dione]	–	> 1000	88	27	–	–
CC(CF)N[C@H]1CCCC[C@@H]1Cc1ccc2c(c1)CN(C1CCC(=O)NC1=O)C2=O (some centres unmarked) [Example 127]	72	15	68	15	–	–
O=C1CCC(N2Cc3cc(C[C@H]4CCCC[C@@H]4NC4CCC45COC5)ccc3C2=O)C(=O)N1 (single isomer, unassigned) [Example 286]	33	223	96	27	–	–
[2H]C1(N[C@H]2CCCC[C@@H]2Cc2ccc3c(c2)CN(C2CCC(=O)NC2=O)C3=O)CCCCC1 (some centres unmarked) [Example 215]	29	174	97	2	–	–
O=C1CCC(N2Cc3c(ccc(C[C@H]4OCCC[C@@H]4NC4CCc5cn[nH]c5C4)c3F)C2=O)C(=O)N1 (some centres unmarked) [Example 374]	–	> 1000	98	58	–	–
O=C1CCC(N2Cc3cc(C[C@H]4CCCC[C@@H]4NC4CCC(F)(F)CC4)c(F)cc3C2=O)C(=O)N1 (some centres unmarked) [Example 350]	50	124	94	10	–	–

SMILES	Dmax (IKZF1) [%]	DC50 (IKZF1) [nM]	Dmax (IKZF2) [%]	DC50 (IKZF2) [nM]	IKZF1 Dmax (IKZF1) [%]	IKZF2 Dmax (IKZF2) [%]
CC(C)OC1CCC(N[C@H]2CCCC[C@@H]2Cc2ccc3c(c2)CN(C2CCC(=O)NC2=O)C3=O)CC1 (single isomer, unassigned) [Example 167]	36	77	97	2	–	–
CC(N[C@H]1CCCC[C@@H]1Cc1ccc2c(c1)CN(C1CCC(=O)NC1=O)C2=O)C1CCS(=O)(=O)CC1 (single isomer, unassigned) [Example 371]	–	461	–	62	50	94
O=C1CCC(N2Cc3cc(C[C@H]4CCCC[C@@H]4NCc4ccccc4)ccc3C2=O)C(=O)N1 (single isomer, unassigned) [Example 97]	–	85	–	36	–	–
CC(CC(C)(C)C)N[C@H]1CCCC[C@@H]1Cc1ccc2c(c1)CN(C1CCC(=O)NC1=O)C2=O (some centres unmarked) [Example 205]	–	> 1000	98	3	–	–
O=C1CC[C@@H](N2Cc3cc(C[C@H]4CCCC[C@@H]4NC4CCCCC4)ccc3C2=O)C(=O)N1 (single isomer, unassigned) [Example 337]	–	> 1000	95	5	–	–
C[C@H]1CCCC(N[C@H]2CCCC[C@@H]2Cc2ccc3c(c2)CN(C2CCC(=O)NC2=O)C3=O)C1 (some centres unmarked) [Example 236]	34	122	98	6	–	–
O=C1CCC(N2Cc3cc(C[C@H]4CCCC[C@@H]4NCc4cncc(F)c4)ccc3C2=O)C(=O)N1 (stereo partly drawn) [Example 51, 3-(5-(((1R,2S)-2-(((5-fluoropyridin-3-yl)methyl)amino)cyclohexyl)methyl)-1-oxoisoindolin-2-yl)piperidine-2,6-dione]	–	> 1000	80	45	–	–
CCOC1CN([C@H]2CCCC[C@@H]2Cc2ccc3c(c2)CN(C2CCC(=O)NC2=O)C3=O)C1 (stereo partly drawn) [Example 31, 3-(5-(((1R,2S)-2-(3-ethoxyazetidin-1-yl)cyclohexyl)methyl)-1-oxoisoindolin-2-yl)piperidine-2,6-dione]	–	> 1000	85	30	–	–
O=C1CCC(N2Cc3cc(C[C@H]4CCCC[C@@H]4NCc4ncc(F)cc4F)ccc3C2=O)C(=O)N1 (stereo partly drawn) [Example 44, 3-(5-(((1R,2S)-2-(((3,5-difluoropyridin-2-yl)methyl)amino)cyclohexyl)methyl)-1-oxoisoindolin-2-yl)piperidine-2,6-dione]	–	> 1000	60	67	–	–
COC1(C)CCC(N[C@H]2CCCO[C@@H]2Cc2ccc3c(c2F)CN(C2CCC(=O)NC2=O)C3=O)CC1 (single isomer, unassigned) [Example 317]	33	243	–	6	–	94
C[C@@H](N[C@H]1CCCC[C@@H]1Cc1ccc2c(c1)CN(C1CCC(=O)NC1=O)C2=O)c1ccccc1 (stereo partly drawn) [Example 61, 3-(1-oxo-5-(((1R,2S)-2-(((R)-1-phenylethyl)amino)cyclohexyl)methyl)isoindolin-2-yl)piperidine-2,6-dione]	–	> 1000	95	23	–	–
O=C1CCC(N2Cc3cc(C[C@H]4CC[C@@H](F)C[C@@H]4NC4CCCCC4)ccc3C2=O)C(=O)N1 (some centres unmarked) [Example 355]	–	> 1000	91	5	–	–
CCC(C)N[C@H]1CCCC[C@@H]1Cc1ccc2c(c1F)CN(C1CCC(=O)NC1=O)C2=O (single isomer, unassigned) [Example 295]	–	283	–	1	43	97
O=C1CCC(N2Cc3cc(C[C@H]4CCCC[C@@H]4NCc4cccnc4C(F)(F)F)ccc3C2=O)C(=O)N1 (stereo partly drawn) [Example 58, 3-(1-oxo-5-(((1R,2S)-2-(((2-(trifluoromethyl)pyridin-3-yl)methyl)amino)cyclohexyl)methyl)isoindolin-2-yl)piperidine-2,6-dione]	34	206	75	46	–	–
CC(N[C@H]1CCCC[C@@H]1Cc1ccc2c(c1)CN(C1CCC(=O)NC1=O)C2=O)C1CCCCC1 (some centres unmarked) [Example 203]	–	> 1000	95	13	–	–
C=C1CC[C@H](N)[C@@H](Cc2ccc3c(c2)CN(C2CCC(=O)NC2=O)C3=O)C1 (stereo partly drawn) [Example 381, 3-(5-(((1R,2S)-2-amino-5-methylenecyclohexyl)methyl)-1-oxoisoindolin-2-yl)piperidine-2,6-dione]	29	108	65	207	–	–
O=C1CCC(N2Cc3cc(C[C@H]4CCCC[C@@H]4NC4CCC(OC(F)F)CC4)ccc3C2=O)C(=O)N1 (stereo partly drawn) [Example 323, 3-(5-(((1R,2S)-2-((4-(difluoromethoxy)cyclohexyl)amino)cyclohexyl)methyl)-1-oxoisoindolin-2-yl)piperidine-2,6-dione]	45	50	96	3	–	–
